From patent US20150181863A1, “FLEXIBLE SUPERABSORBENT BINDER POLYMER AND ANTIMICROBIAL AGENT COMPOSITION” (EVONIK INDUSTRIES AG, priority 2013, published 2015)

System: Escherichia coli (ATCC 11229)/Staphylococcus aureus (ATCC 6538)/Pseudomonas aeruginosa (ATCC 27853)
Test: Zone of Inhibition Test, control line (organism not stated)
Type: cell-based
Conditions: 5 μg disk, n = 1; one value only, organism not assigned; 48 hours at ambient temperature
Method: Zone of inhibition testing with a variety of gram negative and gram positive bacteria was performed. The test material was brought into contact with a known amount of test microorganisms on an agar plate for 48 hours at ambient temperature. At the end of the contact time the diameter of inhibited colony formation (zone of inhibition) surrounding the test material was measured.
Referenced method AATCC 147-1998 “Antibacterial Activity Assessment of Textile Materials: Parallel Streak Method” with changes for following Zone of Inhibition procedure (AATCC is “American Association of Textile Chemists and Colorists” located in Research Triangle Park, N.C.):
Organisms used in this study were Escherichia coli (ATCC 11229)/Staphylococcus aureus (ATCC 6538)/Pseudomonas aeruginosa (ATCC 27853) (ATCC is “American Type Culture Collection” an organization in Manassas, Va.). Washed cells were diluted in Butterfield's Phosphate buffer to a target titer of approximately 10^8 colony forming units (CFU)/mL. Agar plates for testing were brought to room temperature prior to inoculation. A sterile applicator swab was placed in cell suspension and excess fluid was expressed using the side of the centrifuge tube. […] At the end of the contact time, the diameter of inhibited colony formation (zone of inhibition) surrounding the test material was measured.

CN[C@H](CC(C)C)C(=O)N[C@H]1C(=O)N[C@@H](CC(N)=O)C(=O)N[C@H]2C(=O)N[C@H]3C(=O)N[C@H](C(=O)N[C@H](C(=O)O)c4cc(O)cc(O)c4-c4cc3ccc4O)[C@H](O)c3ccc(c(Cl)c3)Oc3cc2cc(c3O[C@@H]2O[C@H](CO)[C@@H](O)[C@H](O)[C@H]2O[C@H]2C[C@](C)(N)[C@H](O)[C@H](C)O2)Oc2ccc(cc2Cl)[C@H]1O [Positive Control, vancomycin]
ZOI* (cm), single value for control: 1.9 cm
